Data: US20260217708A1, “FUSED BENZAZEPINE DERIVATIVES FOR USE IN THE TREATMENT OF CANCER AND EPILEPSY” (UCB BIOPHARMA SRL, priority 2023, published 2026)

What was measured:
[1] = biological target: T1, system Xc^− (Homo sapiens, UniProt Q9UPY5); assay: Cystine-induced glutamate release assay; type: cell-based; set-up: endogenous in cells; host or cells: H4 cells; conditions: H4 cells, sodium-free HEPES buffer, 50 μM L-Cystine, 2 hours, Amplex Red glutamate readout; read-out: pIC50 Cystine-induced glutamate release assay (converted)
T1 sequence (Q9UPY5 1-501): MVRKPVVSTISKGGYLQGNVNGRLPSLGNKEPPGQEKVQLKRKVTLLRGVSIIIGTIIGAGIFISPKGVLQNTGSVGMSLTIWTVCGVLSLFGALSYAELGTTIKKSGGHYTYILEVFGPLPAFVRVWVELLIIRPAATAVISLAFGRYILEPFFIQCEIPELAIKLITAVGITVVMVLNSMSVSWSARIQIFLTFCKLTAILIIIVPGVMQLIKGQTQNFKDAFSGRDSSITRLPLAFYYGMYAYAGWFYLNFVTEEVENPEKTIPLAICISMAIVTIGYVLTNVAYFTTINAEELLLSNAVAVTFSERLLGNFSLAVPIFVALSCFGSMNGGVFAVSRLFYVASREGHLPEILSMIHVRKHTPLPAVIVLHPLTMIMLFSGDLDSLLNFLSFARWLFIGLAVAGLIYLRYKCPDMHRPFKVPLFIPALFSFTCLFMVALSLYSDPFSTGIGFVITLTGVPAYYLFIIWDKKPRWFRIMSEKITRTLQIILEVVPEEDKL
T1 sequence (P08195 1-529 partner): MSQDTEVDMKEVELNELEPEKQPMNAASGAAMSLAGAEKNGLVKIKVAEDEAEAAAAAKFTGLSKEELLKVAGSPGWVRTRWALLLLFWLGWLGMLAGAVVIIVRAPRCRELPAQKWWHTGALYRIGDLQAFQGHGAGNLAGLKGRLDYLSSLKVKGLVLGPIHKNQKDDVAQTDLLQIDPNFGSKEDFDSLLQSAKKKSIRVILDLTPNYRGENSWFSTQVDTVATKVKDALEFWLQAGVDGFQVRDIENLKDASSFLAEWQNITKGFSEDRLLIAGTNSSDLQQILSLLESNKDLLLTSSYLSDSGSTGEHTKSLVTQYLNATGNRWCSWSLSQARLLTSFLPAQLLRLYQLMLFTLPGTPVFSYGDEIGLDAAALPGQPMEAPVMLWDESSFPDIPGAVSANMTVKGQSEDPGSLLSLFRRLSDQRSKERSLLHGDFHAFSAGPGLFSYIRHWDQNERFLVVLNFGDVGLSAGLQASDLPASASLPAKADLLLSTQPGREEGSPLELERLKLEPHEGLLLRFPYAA
In short: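 H4 cells in sodium-free HEPES buffer (pH 7.4), 2 days after plating; glutamate release induced with 50 μM L-cystine plus compound (1% DMSO), 2 h at 37 °C. Supernatant glutamate measured by Amplex Red fluorescence; IC50/pIC50 derived between 1% DMSO and 50 μM erastin controls.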

[2] = biological target: T1, system Xc^−; assay: [^14C]L-Cystine uptake assay; type: cell-based; set-up: endogenous in cells; host or cells: H4 cells; conditions: H4 cells, sodium-free HEPES buffer, 0.5 μM L-[14C]Cystine and 4.5 μM L-Cystine, 1 hour at 37° C.; read-out: pIC50 [^14C] L-Cystine uptake assay (converted)
In short: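 H4 cells at 5×10^4 cells/well in sodium-free HEPES buffer were preincubated 15 min with compounds (1% DMSO). Uptake of 0.5 μM [14C]L-cystine plus 4.5 μM unlabelled L-cystine ran 1 hour at 37° C on scintillating plates. IC50 was set between 1% DMSO and 50 μM Erastin controls and expressed as pIC50.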

Row | Compound | IC50 [1] [nM] | IC50 [2] [nM]
1 | Cc1ccc(NC(=O)CN2C(=O)Cc3cccnc3-c3cnc(Cl)cc32)cc1Cl [#18, N-(3-chloro-4-methyl-phenyl)-2-(13-chloro-9-oxo-3,10,14-triazatricyclo[9.4.0.0^2,7]pentadeca-1(11),2(7),3,5,12,14-hexaen-10-yl)acetamide] | 100 to 501 | 100 to 501
2 | O=C(CN1C(=O)Cc2cccnc2-c2cnc(Cl)cc21)Nc1ccc(Br)c(Cl)c1 [#19, N-(4-bromo-3-chloro-phenyl)-2-(13-chloro-9-oxo-3,10,14-triazatricyclo[9.4.0.0^2,7]pentadeca-1(11),2(7),3,5,12,14-hexaen-10-yl)acetamide] | 100 to 501 | 100 to 501
3 | Cc1cc2c(cn1)-c1cc(C)c(C)cc1N(CC(=O)Nc1ccc(C(F)(F)F)cc1)C(=O)C2 [#21, N-[4-(trifluoromethyl)phenyl]-2-(3,9,10-trimethyl-6-oxo-5H-pyrido[4,3-d][1]benzazepin-7-yl)acetamide] | 100 to 501 | 39.8 to 100
4 | Cc1cc2c(cc1C)N(CC(=O)Nc1ccc(C(F)(F)F)cc1)C(=O)Cc1cccnc1-2 [#22, 2-(9,10-dimethyl-6-oxo-5H-pyrido[3,2-d][1]benzazepin-7-yl)-N-[4-(trifluoromethyl)phenyl]acetamide] | 100 to 501 | 39.8 to 100
5 | Cc1cc2c(cc1C)N(CC(=O)Nc1ccc(C(F)(F)F)cc1)C(=O)Cc1ncccc1-2 [#23, 2-(9,10-dimethyl-6-oxo-5H-pyrido[2,3-d][1]benzazepin-7-yl)-N-[4-(trifluoromethyl)phenyl]acetamide] | 39.8 to 100 | 15.8 to 39.8
6 | Cc1cc2c(cc1C)N(CC(=O)Nc1ccc(C(F)(F)F)cc1)C(=O)Cc1ccncc1-2 [#24, 2-(9,10-dimethyl-6-oxo-5H-pyrido[4,3-d][1]benzazepin-7-yl)-N-[4-(trifluoromethyl)phenyl]acetamide] | 100 to 501 | 15.8 to 39.8
7 | O=C(CN1C(=O)Cc2ncccc2-c2cnc(Cl)cc21)Nc1ccc(C(F)(F)F)cc1 [#25, 2-(5-chloro-9-oxo-4,8,12-triazatricyclo[9.4.0.0^2,7]pentadeca-1(11),2(7),3,5,12,14-hexaen-8-yl)-N-[4-(trifluoromethyl)phenyl]acetamide] | 100 to 501 | 100 to 501
8 | O=C(CN1C(=O)Cc2sccc2-c2cnc(Cl)cc21)Nc1ccc(C(F)(F)F)cc1 [#26, 2-(12-chloro-8-oxo-5-thia-9,13-diazatricyclo[8.4.0.0^2,6]tetradeca-1(10),2(6),3,11,13-pentaen-9-yl)-N-[4-(trifluoromethyl)phenyl]acetamide] | 100 to 501 | 39.8 to 100
9 | Cc1cc2c(c(C)n1)-c1ccccc1CC(=O)N2CC(=O)Nc1ccc(C(F)(F)F)cc1 [#27, 2-(1,3-dimethyl-6-oxo-7H-pyrido[4,3-d][3]benzazepin-5-yl)-N-[4-(trifluoromethyl)phenyl]acetamide] | 15.8 to 39.8 | < 15.8
10 | Cc1nccc2c1-c1ccccc1CC(=O)N2CC(=O)Nc1ccc(C(F)(F)F)cc1 [#28, 2-(1-methyl-6-oxo-7H-pyrido[4,3-d] [3]benzazepin-5-yl)-N-[4-(trifluoro-methyl)phenyl] acetamide] | 39.8 to 100 | 39.8 to 100

Next, values leading:

Row | IC50 [1] [nM] | IC50 [2] [nM] | Compound
11 | 100 to 501 | 100 to 501 | Cc1cc2c(cn1)N(CC(=O)Nc1ccc(C(F)(F)F)cc1)C(=O)Cc1ccccc1-2 [#29, 2-(2-methyl-6-oxo-7H-pyrido[3,4-d] [3]benzazepin-5-yl)-N-[4-(trifluoro-methyl)phenyl] acetamide]
12 | 100 to 501 | < 15.8 | Cc1cc2c(cn1)-c1cc(Cl)ccc1CC(=O)N2CC(=O)Nc1ccc(C(F)(F)F)cc1 [#30, 2-(10-chloro-3-methyl-6-oxo-7H-pyrido[4,3-d][3]benzazepin-5-yl)-N-[4-(trifluoro-methyl)phenyl] acetamide]
13 | 100 to 501 | 15.8 to 39.8 | Cc1cc2c(cn1)-c1cccc(Cl)c1CC(=O)N2CC(=O)Nc1ccc(C(F)(F)F)cc1 [#31, 2-(8-chloro-3-meth-yl-6-oxo-7H-pyrido [4,3-d][3]benzaze-pin-5-yl)-N-[4-(trifluoromethyl)-phenyl]acetamide]
14 | 100 to 501 | 100 to 501 | Cc1cc2c(cn1)-c1c(Cl)cccc1CC(=O)N2CC(=O)Nc1ccc(C(F)(F)F)cc1 [#32, 2-(11-chloro-3-methyl-6-oxo-7H-pyrido[4,3-d][3]benzazepin-5-yl)-N-[4-(trifluoro-methyl)phenyl] acetamide]
15 | 39.8 to 100 | 15.8 to 39.8 | Cc1cc2c(cn1)-c1cc(F)ccc1CC(=O)N2CC(=O)Nc1ccc(C(F)(F)F)cc1 [#33, 2-(10-fluoro-3-methyl-6-oxo-7H-pyrido[4,3-d][3]benzazepin-5-yl)-N-[4-(trifluoro-methyl)phenyl] acetamide]
16 | 100 to 501 | 39.8 to 100 | Cc1cc2c(cn1)-c1ccc(F)cc1CC(=O)N2CC(=O)Nc1ccc(C(F)(F)F)cc1 [#34, 2-(9-fluoro-3-methyl-6-oxo-7H-pyrido[4,3-d][3]benzazepin-5-yl)-N-[4-(trifluoro-methyl)phenyl] acetamide]
17 | 39.8 to 100 | 15.8 to 39.8 | Cc1cc2c(cn1)-c1cccc(F)c1CC(=O)N2CC(=O)Nc1ccc(C(F)(F)F)cc1 [#35, 2-(8-fluoro-3-methyl-6-oxo-7H-pyrido[4,3-d][3]benzazepin-5-yl)-N-[4-(trifluoro-methyl)phenyl] acetamide]
18 | 39.8 to 100 | 100 to 501 | Cc1cc2c(cn1)-c1cccnc1CC(=O)N2CC(=O)Nc1ccc(C(F)(F)F)cc1 [#36, 2-(5-methyl-9-oxo-4,8,12-triazatricyclo[9.4.0.0^2,7]pentadeca-1(11),2(7),3,5,12,14-hexaen-8-yl)-N-[4-(trifluoromethyl)phenyl]acetamide]
19 | 100 to 501 | 100 to 501 | O=C(CN1C(=O)Cn2nccc2-c2cnc(Cl)cc21)Nc1ccc(C(F)(F)F)cc1 [#37, 2-(12-chloro-8-oxo-5,6,9,13-tetrazatricyclo[8.4.0.0^2,6]tetradeca-1(10),2,4,11,13-pentaen-9-yl)-N-[4-(trifluoromethyl)phenyl]acetamide]
20 | 100 to 501 | 100 to 501 | Cc1cc2c(c(F)n1)-c1ncccc1CC(=O)N2CC(=O)Nc1ccc(C(F)(F)F)cc1 [#38, 2-(15-fluoro-13-methyl-9-oxo-3,10,14-triazatricyclo[9.4.0.0^2,7]pentadeca-1(11),2(7),3,5,12,14-hexaen-10-yl)-N-[4-(trifluoromethyl)phenyl]acetamide]
21 | 15.8 to 39.8 | 15.8 to 39.8 | Cc1cc2c(c(F)n1)-c1ccccc1CC(=O)N2CC(=O)Nc1ccc(C(F)(F)F)cc1 [#39, 2-(1-fluoro-3-methyl-6-oxo-7H-pyrido[4,3-d][3]benzazepin-5-yl)-N-[4-(trifluorometh-yl)phenyl]acetamide]
22 | 15.8 to 39.8 | < 15.8 | Cc1cc2c(c(F)n1)-c1cccnc1CC(=O)N2CC(=O)Nc1ccc(C(F)(F)F)cc1 [#40, 2-(3-fluoro-5-methyl-9-oxo-4,8,12-triaza-tricyclo[9.4.0.0^2,7]pentadeca-1(11),2(7), 3,5,12,14-hexaen-8-yl)-N-[4-(trifluoro-methyl)phenyl]acet-amide]
23 | 100 to 501 | 100 to 501 | Cc1cc2c(c(F)n1)-c1ncccc1CC(=O)N2CC(=O)Nc1ccc(Cl)c(F)c1 [#41, N-(4-chloro-3-fluoro-phenyl)-2-(15-fluoro-13-methyl-9-oxo-3,10,14-triazatricyclo [9.4.0.0^2,7]pentadeca-1(11),2(7),3,5,12,14-hexaen-10-yl)acetamide]
24 | 39.8 to 100 | 39.8 to 100 | Cc1cc2c(c(F)n1)-c1sccc1CC(=O)N2CC(=O)Nc1ccc(C(F)(F)F)cc1 [#42, 2-(14-fluoro-12-meth-yl-8-oxo-3-thia-9,13-diazatricyclo[8.4.0.0^2,6]tetradeca-1(10),2(6), 4,11,13-pentaen-9-yl)-N-[4-(trifluorometh-yl)phenyl]acetamide]
